From patent US20110224208A1, “NOVEL INHIBITORS OF FLAVIVIRUS REPLICATION” (KATHOLIEKE UNIVERSITEIT LEUVEN, K.U. LEUVEN R&D, priority 2008, published 2011) come the findings set out here.

Data set [1] deals with HCV replicon I389luc-ubi-neo/NS3-3'/5.1. Put plainly: Anti-HCV replicon assay (luciferase activity) in Huh-5-2 cells. It counts as cell-based, Hepatitis C virus. The following applies: concentration required to inhibit luciferase activity in the replicon system by 50%. A digest of the protocol:
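Huh-5-2 cells carrying the luciferase HCV replicon, seeded 24 h, then exposed to serial compound dilutions without G418 for 72 h at 37° C, 5% CO2. Replication read as luciferase luminescence, expressed as percentage of untreated cultures; culture density measured in parallel by MTS.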

A short description of data set [2]: Proliferation of exponentially growing Huh-5-2 cells (MTS method). The following applies: human, CC50, concentration required to inhibit the proliferation of exponentially growing Huh-5-2 cells by 50%; Table 2. Here is the method:
Cells were seeded at a density of 7000 cells per well in 96 well View Plate™ (Packard) in medium containing the same components as described above, except for G418. Cells were allowed to adhere and proliferate for 24 hr. At that time, culture medium was removed and serial dilutions of the test compounds were added in culture medium lacking G418. Interferon alfa 2a (500 IU) was included as a positive control. Plates were further incubated at 37° C. and 5% CO2 for 72 hours. Replication of the HCV replicon in Huh-5 cells results in luciferase activity in the cells. Luciferase activity is measured by adding 50 μl of 1×Glo-lysis buffer (Promega) for 15 minutes followed by 50 ul of the Steady-Glo Luciferase assay reagent (Promega). Luciferase activity is measured with a luminometer and the signal in each individual well is expressed as a percentage of the untreated cultures. […] Instead the density of the culture is measured by means of the MTS method (Promega).

The mark [3] stands for this setting: Hepatitis C virus, Huh-5-2, 72 h.

Converted amounts (≈) assume the structure as drawn.

As usually defined, the IC50 is the concentration that inhibits the measured activity by half. The CC50 is the concentration that lowers cell viability or growth by half. Lower therefore signals harm at low concentration.

`COCCN1C(=O)c2ccccc2C(C(=O)Nc2cccc(OC)c2)C1C=C(C)C` (stereo not drawn) [C120, 2-(2-methoxyethyl)-N-(3-methoxyphenyl)-3-(2-methylprop-1-enyl)-1-oxo-1,2,3,4-tetrahydroisoquinoline-4-carboxamide] gave an IC50 in data set [1] (setting [3]) of 3.28 µg/mL (≈ 8.03 µM). Besides, in data set [2], the CC50 at 72 h came out at 95.4 µg/mL (≈ 233 µM).
Turning to `COCCN1C(=O)c2ccccc2C(C(=O)Nc2ccc(C#N)cc2)C1c1cccs1` (stereo not drawn) [C20, N-(4-cyanophenyl)-2-(2-methoxyethyl)-1-oxo-3-(thiophen-2-yl)-1,2,3,4-tetrahydroisoquinoline-4-carboxamide], in data set [1] (setting [3]), the IC50 amounted to 0.4 µg/mL (≈ 0.927 µM). Also, the CC50 at 72 h in data set [2] is 42 µg/mL (≈ 97.3 µM).
In data set [1] (setting [3]), `COCCN1C(=O)c2ccccc2C(C(=O)Nc2nc3ccc(F)cc3s2)C1c1cccs1` (stereo not drawn) [C199, N-(6-fluorobenzo[d]thiazol-2-yl)-2-(2-methoxyethyl)-1-oxo-3-(thiophen-2-yl)-1,2,3,4-tetrahydroisoquinoline-4-carboxamide] had an IC50 of 0.12 µg/mL (≈ 0.249 µM). Moreover, in data set [2], the CC50 at 72 h turned out to be 5.97 µg/mL (≈ 12.4 µM).
In data set [1] (setting [3]), `COCCN1C(=O)c2ccccc2C(C(=O)Nc2ccc(Cn3ccnc3)cc2)C1c1cccs1` (stereo not drawn) [C215, N-(4-((1H-imidazol-1-yl)methyl)phenyl)-2-(2-methoxyethyl)-1-oxo-3-(thiophen-2-yl)-1,2,3,4-tetrahydroisoquinoline-4-carboxamide] came in with an IC50 of 1.04 µg/mL (≈ 2.14 µM). In addition, half-maximal cytotoxicity in data set [2] (CC50 at 72 h) was put at 52.9 µg/mL (≈ 109 µM).
In data set [1] (setting [3]), `COCCN1C(=O)c2ccccc2C(C(=O)Nc2ccc(Cn3cncn3)cc2)C1c1cccs1` (stereo not drawn) [C217, N-(4-((1H-1,2,4-triazol-1-yl)methyl)phenyl)-2-(2-methoxyethyl)-1-oxo-3-(thiophen-2-yl)-1,2,3,4-tetrahydroisoquinoline-4-carboxamide] came in with an IC50 of 0.76 µg/mL (≈ 1.56 µM). In data set [2], this compound showed a CC50 at 72 h of 83.7 µg/mL (≈ 172 µM).
`CCN1C(=O)c2ccccc2C(C(=O)Nc2cccc(OC)c2)C1c1cccs1` (stereo not drawn) [C5, 2-Ethyl-N-(3-methoxyphenyl)-1-oxo-3-(thiophen-2-yl)-1,2,3,4-tetrahydroisoquinoline-4-carboxamide] returned an IC50 in data set [1] (setting [3]) of 3.6 µg/mL (≈ 8.86 µM). Also, the CC50 at 72 h in data set [2] stood at 33.4 µg/mL (≈ 82.2 µM).
For `COCCN1C(=O)c2ccccc2C(C(=O)Nc2ccc3[nH]c(C)cc3c2)C1c1cccs1` (stereo not drawn) [C131, 2-(2-methoxyethyl)-N-(2-methyl-1H-indol-5-yl)-1-oxo-3-(thiophen-2-yl)-1,2,3,4-tetrahydroisoquinoline-4-carboxamide], in data set [1] (setting [3]), the IC50 was found to be 1.12 µg/mL (≈ 2.44 µM). This compound had a CC50 at 72 h in data set [2] of 69.7 µg/mL (≈ 152 µM).
Take `COCCn1c(-c2cccs2)c(C(=O)Nc2cccc(OC)c2)c2ccccc2c1=O` [C32, 2-(2-methoxyethyl)-N-(3-methoxyphenyl)-1-oxo-3-(thiophen-2-yl)-1,2-dihydroisoquinoline-4-carboxamide]: the IC50 in data set [1] (setting [3]) came to 37.3 µg/mL (≈ 85.8 µM). In addition, the CC50 at 72 h in data set [2] was 73.7 µg/mL (≈ 170 µM).
In turn, `COCCN1C(=O)c2ccccc2C(C(=O)Nc2cccc(OC)c2)C1c1sccc1Cl` (stereo not drawn) [C17, 3-(3-Chlorothiophen-2-yl)-2-(2-methoxyethyl)-N-(3-methoxyphenyl)-1-oxo-1,2,3,4-tetrahydroisoquinoline-4-carboxamide] showed an IC50 in data set [1] (setting [3]) of 3.8 µg/mL (≈ 8.07 µM). Further, half-maximal cytotoxicity in data set [2] (CC50 at 72 h) was put at 50.4 µg/mL (≈ 107 µM).
In data set [1] (setting [3]), `COCCN1C(=O)c2cccc(C)c2C(C(=O)Nc2cccc(OC)c2)C1c1cccs1` (stereo not drawn) [C39, 2-(2-Methoxyethyl)-N-(3-methoxyphenyl)-5-methyl-1-oxo-3-(thiophen-2-yl)-1,2,3,4-tetrahydroisoquinoline-4-carboxamide] yielded an IC50 of 1.3 µg/mL (≈ 2.89 µM). For the same compound, the CC50 at 72 h in data set [2] came to 80 µg/mL (≈ 178 µM).
`COc1cccc(NC(=O)C2c3ccccc3C(=O)N(Cc3ccccc3)C2c2cccs2)c1` (stereo not drawn) [C37, 2-Benzyl-N-(3-methoxyphenyl)-1-oxo-3-(thiophen-2-yl)-1,2,3,4-tetrahydroisoquinoline-4-carboxamide] displayed an IC50 in data set [1] (setting [3]) of 1.5 µg/mL (≈ 3.2 µM). Further, the 50% cytotoxic concentration (CC50) at 72 h in data set [2] was found to be 92.7 µg/mL (≈ 198 µM).
For `COCCN1C(=O)c2ccccc2C(C(=O)Nc2cccc(-n3cncn3)c2)C1c1cccs1` (stereo not drawn) [C200, N-(3-(1H-1,2,4-triazol-1-yl)phenyl)-2-(2-methoxyethyl)-1-oxo-3-(thiophen-2-yl)-1,2,3,4-tetrahydroisoquinoline-4-carboxamide], in data set [1] (setting [3]), the IC50 came to 0.32 µg/mL (≈ 0.676 µM). For the same compound, half-maximal cytotoxicity in data set [2] (CC50 at 72 h) was put at 59.4 µg/mL (≈ 125 µM).
Taken in the same sequence, the figures for `COCCN1C(=O)c2ccccc2C(C(=O)Nc2ccc3c(c2)CC(=O)N3C)C1c1cccs1` (stereo not drawn) [C206, 2-(2-methoxyethyl)-N-(1-methyl-2-oxoindolin-5-yl)-1-oxo-3-(thiophen-2-yl)-1,2,3,4-tetrahydroisoquinoline-4-carboxamide] were 3.72 µg/mL (≈ 7.82 µM) and 52.3 µg/mL (≈ 110 µM).
Taken in the same sequence, the figures for `COCCN1C(=O)c2ccccc2C(C(=O)NCc2cccc3ccccc23)C1c1cccs1` (stereo not drawn) [C72, 2-(2-methoxyethyl)-N-(naphthalen-1-ylmethyl)-1-oxo-3-(thiophen-2-yl)-1,2,3,4-tetrahydroisoquinoline-4-carboxamide] were 35.8 µg/mL (≈ 76.1 µM) and 71.2 µg/mL (≈ 151 µM).
In data set [1] (setting [3]), `COCCN1C(=O)c2ccccc2C(C(=O)Nc2cc(C(C)(C)C)[nH]n2)C1c1cccs1` (stereo not drawn) [C185, N-(5-tert-butyl-1H-pyrazol-3-yl)-2-(2-methoxyethyl)-1-oxo-3-(thiophen-2-yl)-1,2,3,4-tetrahydroisoquinoline-4-carboxamide] gave an IC50 of 10.4 µg/mL (≈ 23 µM). Further, the CC50 at 72 h in data set [2] came out at 19 µg/mL (≈ 42 µM).
Consider `COCCN1C(=O)c2ccccc2C(C(=O)Nc2cccc(OC)c2)C1C1CCCC1` (stereo not drawn) [C118, 3-cyclopentyl-2-(2-methoxyethyl)-N-(3-methoxyphenyl)-1-oxo-1,2,3,4-tetrahydroisoquinoline-4-carboxamide], for which the IC50 in data set [1] (setting [3]) was 8.32 µg/mL (≈ 19.7 µM). In data set [2], the CC50 at 72 h worked out at 98.2 µg/mL (≈ 233 µM).
On the same counts, the results for `COCCN1C(=O)c2ccccc2C(C(=O)Nc2ccc(N3CCCCC3)cc2)C1c1cccs1` (stereo not drawn) [C107, 2-(2-methoxyethyl)-1-oxo-N-(4-(piperidin-1-yl)phenyl)-3-(thiophen-2-yl)-1,2,3,4-tetrahydroisoquinoline-4-carboxamide] are 0.12 µg/mL (≈ 0.245 µM) and 23.5 µg/mL (≈ 47.9 µM).
With `COCCN1C(=O)c2ccccc2C(C(=O)Nc2ccc(C(F)(F)F)cc2)C1c1cccs1` (stereo not drawn) [C19, 2-(2-Methoxyethyl)-1-oxo-3-(thiophen-2-yl)-N-(4-(trifluoromethyl)phenyl)-1,2,3,4-tetrahydroisoquinoline-4-carboxamide], the IC50 in data set [1] (setting [3]) came to 5.2 µg/mL (≈ 11 µM). In addition, in data set [2], the CC50 at 72 h worked out at 12.1 µg/mL (≈ 25.5 µM).
As for `COCCN1C(=O)c2ccccc2C(C(=O)Nc2cccc(OC)c2)C1c1ccc[nH]1` (stereo not drawn) [C29, 2-(2-Methoxyethyl)-N-(3-methoxyphenyl)-1-oxo-3-(1H-pyrrol-2-yl)-1,2,3,4-tetrahydroisoquinoline-4-carboxamide], inhibition in data set [1] (setting [3]) was half-maximal at 14.8 µg/mL (≈ 35.2 µM) (IC50). The compound also returned a CC50 at 72 h in data set [2] of 54.5 µg/mL (≈ 130 µM).
Taken in the same sequence, the figures for `COCCN1C(=O)c2ccccc2C(C(=O)Nc2cccc(OC)c2)C1CC1CCOCC1` (stereo not drawn) [C97, 2-(2-methoxyethyl)-N-(3-methoxyphenyl)-1-oxo-3-((tetrahydro-2H-pyran-4-yl)methyl)-1,2,3,4-tetrahydroisoquinoline-4-carboxamide] were 51.6 µg/mL (≈ 114 µM) and 80 µg/mL (≈ 177 µM).
Taken in the same sequence, the figures for `COCCN1C(=O)c2ccccc2C(C(=O)Nc2cccc(OC)c2)C1c1cc(C)nn1C` (stereo not drawn) [C100, 3-(1,3-dimethyl-1H-pyrazol-5-yl)-2-(2-methoxyethyl)-N-(3-methoxyphenyl)-1-oxo-1,2,3,4-tetrahydroisoquinoline-4-carboxamide] were 56.8 µg/mL (≈ 127 µM) and 86.7 µg/mL (≈ 193 µM).
In turn, `COCCN1C(=O)c2ccccc2C(C(=O)Nc2ccc3scnc3c2)C1c1cccs1` (stereo not drawn) [C81, N-(benzo[d]thiazol-5-yl)-2-(2-methoxyethyl)-1-oxo-3-(thiophen-2-yl)-1,2,3,4-tetrahydroisoquinoline-4-carboxamide] came in with an IC50 in data set [1] (72 hours) of 0.16 µg/mL (≈ 0.345 µM). The same compound came in with a cytotoxic concentration (CC50) at 72 h in data set [2] of 65 µg/mL (≈ 140 µM).
As to `COCCN1C(=O)c2ccccc2C(C(=O)Nc2cccc(OC)c2)C1c1ccc(F)cc1` (stereo not drawn) [C9, 3-(4-Fluorophenyl)-2-(2-methoxyethyl)-N-(3-methoxyphenyl)-1-oxo-1,2,3,4-tetrahydroisoquinoline-4-carboxamide], the IC50 in data set [1] (setting [3]) was 13.4 µg/mL (≈ 29.8 µM). In data set [2], this compound had a cytotoxic concentration (CC50) at 72 h of 50.7 µg/mL (≈ 113 µM).
On the same counts, the results for `COCCN1C(=O)c2ccccc2C(C(=O)Nc2cc(C)no2)C1c1cccs1` (stereo not drawn) [C127, 2-(2-methoxyethyl)-N-(3-methylisoxazol-5-yl)-1-oxo-3-(thiophen-2-yl)-1,2,3,4-tetrahydroisoquinoline-4-carboxamide] are 10.3 µg/mL (≈ 25 µM) and 87.2 µg/mL (≈ 212 µM).
On the same counts, the results for `COCCN1C(=O)c2ccccc2C(C(=O)Nc2cccc(OC)c2)C1CSC` (stereo not drawn) [C82, 2-(2-methoxyethyl)-N-(3-methoxyphenyl)-3-(methylthiomethyl)-1-oxo-1,2,3,4-tetrahydroisoquinoline-4-carboxamide] are 12 µg/mL (≈ 28.9 µM) and 72 µg/mL (≈ 174 µM).
Taken in the same sequence, the figures for `COCCN1C(=O)c2ccccc2C(C(=O)Nc2cccc(OC)c2)C1C(C)(C)C` (stereo not drawn) [C57, 3-tert-Butyl-2-(2-methoxyethyl)-N-(3-methoxyphenyl)-1-oxo-1,2,3,4-tetrahydroisoquinoline-4-carboxamide] were 39.5 µg/mL (≈ 96.1 µM) and 76.2 µg/mL (≈ 186 µM).
The compound `CNC(=O)c1ccc(NC(=O)C2c3ccccc3C(=O)N(CCOC)C2c2cccs2)cc1` (stereo not drawn) [C141, 2-(2-methoxyethyl)-N-(4-(methylcarbamoyl)phenyl)-1-oxo-3-(thiophen-2-yl)-1,2,3,4-tetrahydroisoquinoline-4-carboxamide] yielded an IC50 in data set [1] (setting [3]) of 0.63 µg/mL (≈ 1.36 µM). The same compound registered a CC50 at 72 h in data set [2] of 73.8 µg/mL (≈ 159 µM).
